Like-named read-outs stand apart in the source and are kept apart here.
Columns and labels:
KARN cells (Jurkat 2C4) = experiment: cells; format: cell-based; details: Homo sapiens, Jurkat
Procedure, shortened: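 Luminescence (Steady-Glo, 10 min, room temperature) measured next day in KARN Jurkat 2C4 cells given compounds at up to 40 μM final with 0.4% DMSO. Percent activation normalised to DMSO (0%) and 2 μM SAHA (100%), fitted by 4-parameter curve.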

Recombinant human HDAC1 = target: T1, Recombinant human HDAC1 (Homo sapiens, UniProt Q13547); experiment: Human HDAC enzyme inhibitor Fluor-de-Lys assay, HDAC1; format: biochemical
T1 construct: FLAG (C); made in house
T1 sequence (Q13547 whole entry): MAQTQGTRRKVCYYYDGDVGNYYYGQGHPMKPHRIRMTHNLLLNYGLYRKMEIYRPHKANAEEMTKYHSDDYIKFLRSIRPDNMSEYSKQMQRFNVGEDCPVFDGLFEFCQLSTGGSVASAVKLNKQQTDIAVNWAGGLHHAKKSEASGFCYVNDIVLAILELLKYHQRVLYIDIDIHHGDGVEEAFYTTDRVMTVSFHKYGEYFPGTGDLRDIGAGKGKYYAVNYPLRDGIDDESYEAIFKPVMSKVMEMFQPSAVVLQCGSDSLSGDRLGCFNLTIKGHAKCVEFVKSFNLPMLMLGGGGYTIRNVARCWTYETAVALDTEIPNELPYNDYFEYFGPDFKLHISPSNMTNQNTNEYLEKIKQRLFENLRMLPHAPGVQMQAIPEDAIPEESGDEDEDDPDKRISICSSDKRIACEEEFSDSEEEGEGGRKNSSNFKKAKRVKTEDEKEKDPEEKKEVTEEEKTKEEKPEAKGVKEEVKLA
Procedure, shortened: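 Fluor-de-Lys format at room temperature (23° C.): compounds titrated 10-point, 1:3, preincubated with HDAC before substrate addition; HDAC1 run at 0.3 nM enzyme with 20 μM BML-KI104. Developer with excess HDAC inhibitor ends the reaction, and trypsin-liberated AMC fluorescence is the read-out.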

Recombinant human HDAC2 = target: T2, Recombinant human HDAC2 (Homo sapiens, UniProt Q92769); experiment: Human HDAC enzyme inhibitor Fluor-de-Lys assay, HDAC2; format: biochemical
T2 construct: Full length human HDAC2-FLAG was expressed in baculovirus infected Sf9 cells; FLAG (C); made in house; host or cells: Sf9 (baculovirus)
T2 sequence (Q92769 whole entry): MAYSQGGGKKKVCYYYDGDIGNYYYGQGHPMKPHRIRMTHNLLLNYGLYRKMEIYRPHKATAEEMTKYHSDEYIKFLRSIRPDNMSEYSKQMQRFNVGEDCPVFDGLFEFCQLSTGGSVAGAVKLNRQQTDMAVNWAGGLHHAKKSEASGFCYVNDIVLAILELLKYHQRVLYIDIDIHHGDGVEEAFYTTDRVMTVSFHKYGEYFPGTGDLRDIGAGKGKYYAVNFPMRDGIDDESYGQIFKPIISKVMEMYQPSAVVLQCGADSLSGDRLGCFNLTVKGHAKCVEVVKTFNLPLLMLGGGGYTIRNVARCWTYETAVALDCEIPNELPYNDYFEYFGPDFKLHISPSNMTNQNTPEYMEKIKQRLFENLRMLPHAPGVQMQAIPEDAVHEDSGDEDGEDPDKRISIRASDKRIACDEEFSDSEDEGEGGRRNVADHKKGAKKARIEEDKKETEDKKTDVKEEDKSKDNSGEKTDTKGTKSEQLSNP
Procedure, shortened: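 Fluor-de-Lys format at room temperature (23° C.): compounds titrated 10-point, 1:3, preincubated with HDAC before substrate addition. Developer with excess HDAC inhibitor ends the reaction, and trypsin-liberated AMC fluorescence is the read-out.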

[1] = target: T3, Recombinant human HDAC3/SMRT heterodimer (Homo sapiens, UniProt O15379); experiment: Human HDAC enzyme inhibitor Fluor-de-Lys assay, HDAC3/SMRT; format: biochemical
T3 construct: FLAG (C); made in house
T3 sequence (O15379 whole entry): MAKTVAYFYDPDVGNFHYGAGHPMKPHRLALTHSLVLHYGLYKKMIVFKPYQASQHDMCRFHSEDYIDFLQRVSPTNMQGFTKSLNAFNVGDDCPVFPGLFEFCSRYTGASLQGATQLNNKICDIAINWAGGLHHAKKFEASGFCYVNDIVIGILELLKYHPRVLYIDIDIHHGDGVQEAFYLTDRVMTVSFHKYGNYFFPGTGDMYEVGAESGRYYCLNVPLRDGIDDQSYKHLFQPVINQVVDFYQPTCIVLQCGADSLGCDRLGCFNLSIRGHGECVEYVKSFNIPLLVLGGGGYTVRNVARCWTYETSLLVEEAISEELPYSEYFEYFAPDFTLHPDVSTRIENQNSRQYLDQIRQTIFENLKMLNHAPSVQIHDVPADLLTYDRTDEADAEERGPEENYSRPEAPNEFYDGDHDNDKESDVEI
T3 sequence (Q9Y618 1-899 partner limits assumed): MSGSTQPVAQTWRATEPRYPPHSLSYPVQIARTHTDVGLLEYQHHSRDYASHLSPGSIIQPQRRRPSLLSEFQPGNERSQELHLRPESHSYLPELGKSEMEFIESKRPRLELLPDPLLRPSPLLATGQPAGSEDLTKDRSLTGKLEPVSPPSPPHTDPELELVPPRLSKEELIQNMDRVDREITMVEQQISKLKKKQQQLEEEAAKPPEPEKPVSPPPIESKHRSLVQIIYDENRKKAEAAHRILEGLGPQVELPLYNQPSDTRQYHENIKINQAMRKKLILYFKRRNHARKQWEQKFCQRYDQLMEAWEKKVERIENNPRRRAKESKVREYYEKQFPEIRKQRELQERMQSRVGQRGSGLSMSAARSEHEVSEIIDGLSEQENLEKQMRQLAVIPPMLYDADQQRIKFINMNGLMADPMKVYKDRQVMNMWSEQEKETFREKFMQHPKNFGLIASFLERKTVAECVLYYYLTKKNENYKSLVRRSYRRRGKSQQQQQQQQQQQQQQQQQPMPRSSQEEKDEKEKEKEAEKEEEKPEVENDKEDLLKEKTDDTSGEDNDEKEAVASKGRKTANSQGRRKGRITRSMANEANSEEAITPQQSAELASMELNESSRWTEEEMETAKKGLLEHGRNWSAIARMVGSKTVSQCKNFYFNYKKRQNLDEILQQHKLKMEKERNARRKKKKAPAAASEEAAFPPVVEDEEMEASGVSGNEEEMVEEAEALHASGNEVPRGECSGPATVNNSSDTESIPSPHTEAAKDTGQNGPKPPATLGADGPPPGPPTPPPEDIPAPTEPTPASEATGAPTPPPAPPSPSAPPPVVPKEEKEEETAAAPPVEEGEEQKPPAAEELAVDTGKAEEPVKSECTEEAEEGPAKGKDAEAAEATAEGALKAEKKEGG

[2] = read-out: Karn EC50 (nM) 0.1% NHS, 0.1% normal human serum
[3] = read-out: Karn EC50 (nM) 5% NHS, 5% normal human serum

SMILES | EC50 (KARN cells (Jurkat 2C4); [2]) | EC50 (KARN cells (Jurkat 2C4); [3]) | IC50 (Recombinant human HDAC1) | IC50 (Recombinant human HDAC2) | IC50 [1]
CCC(=O)CCCCC[C@H](NC(=O)C1(CC(C)C)CC2(CN(C)C2)C1)c1ncc(-c2ccc3nc(C)ccc3c2)[nH]1 [Compound 157] | 451 nM | 557 nM | 5.39 nM | 11.9 nM | 4.01 nM
CCC(=O)CCCCC[C@H](NC(=O)[C@H]1CC[C@]2(CC1)OC(=O)c1cccnc12)c1ncc(-c2ccc3nc(C4CC4)ccc3c2)o1 [Compound 123] | 868 nM | 3900 nM | 34.8 nM | 94.6 nM | 7.59 nM
CCC(=O)CCCCC[C@H](NC(=O)C1CCC2(CC1)CN(C)C2)c1ncc(-c2ccc3nn(C)cc3c2)[nH]1 [Compound 156] | 1360 nM | 1360 nM | 5.03 nM | 15.1 nM | 1.98 nM
CCN1CCC2(CC1)C[C@@H]2C(=O)N[C@@H](CCCCCC(=O)CC1CCC1)c1ncc(-c2cc3ccc(C)nc3cc2OC)o1 [Compound 184] | 1630 nM | 2760 nM | 9.51 nM | 38.8 nM | 18.4 nM
CCC(=O)CCCCC[C@H](NC(=O)[C@H]1CC12CCN(C)CC2)c1ncc(-c2cc3ccc(=O)n(C)c3cc2OC)o1 [Compound 198] | 147 nM | 176 nM | 0.87 nM | 3.8 nM | 0.65 nM
CCC(=O)CCCCC[C@H](NC(=O)C1=NOC2(CCN(C)CC2)C1)c1ncc(-c2cc3ccc(C)nc3cc2OC)o1 [Compound 196] | 154 nM | 162 nM | 1.42 nM | 6 nM | 0.73 nM
CCC(=O)CCCCC[C@H](NC(=O)C1=NOC2(CCN(C(C)C)CC2)C1)c1ncc(-c2ccc3nc(C4CC4)ccc3c2)o1 [Compound 136] | 2500 nM |  | 10.3 nM | 31.2 nM | 6.41 nM
C=CCN1CCC2(CC1)C[C@@H]2C(=O)N[C@@H](CCCCCC(=O)CC)c1ncc(-c2ccc3c(c2)C2CCC3N2CC=C)[nH]1 (stereo partly drawn) [Compound 179, (1S)—N-{(1S)-7-oxo-1-[5-(9-prop-2-en-1-yl-1,2,3,4-tetrahydro-1,4-epiminonaphthalen-6-yl)-1H-imidazol-2-yl]nonyl}-6-prop-2-en-1-yl-6-azaspiro[2.5]octane-1-carboxamide] | 2410 nM | 2390 nM | 58.3 nM | 380 nM | 17.5 nM
CCC(=O)CCCCC[C@H](NC(=O)C1=NOC2(CCN(C(C)C)CC2)C1)c1ncc(-c2cc3ccccc3nc2OC)[nH]1 [Compound 106, N-{(1S)-1-[5-(2-methoxyquinolin-3-yl)-1H-imidazol-2-yl]-7-oxononyl}-8-(1-methylethyl)-1-oxa-2,8-diazaspiro[4.5]dec-2-ene-3-carboxamide] | 143 nM | 1070 nM | 1.73 nM | 7.9 nM | < 1.5 nM
CCC(=O)CCCCC[C@H](NC(=O)[C@H]1CC12CCN(CC1CC1)CC2)c1ncc(-c2ccc3nc(C4CC4)ccc3c2)[nH]1 [Compound 104] | 33 nM | 28 nM | < 1.5 nM | < 1.5 nM | < 1.5 nM
CCC(=O)CCCCC[C@H](NC(=O)[C@H]1CC[C@]2(CC1)OC(=O)c1ncccc12)c1ncc(-c2cc3ccccc3nc2OC)[nH]1 [Compound 141] | 146 nM | 1450 nM | 12.2 nM | 38.4 nM | 1.98 nM
CCC(=O)CCCCC[C@H](NC(=O)[C@H]1CC12CCN(C)CC2)c1ncc(-c2ccc3nc(CC)sc3c2)[nH]1 [Compound 149] | 92 nM | 73 nM | 0.5 nM | 3.9 nM | 0.62 nM
CCC(=O)CCCCC[C@H](NC(=O)[C@H]1CC12CCN(C)CC2)c1ncc(-c2cc(OC)ncc2F)o1 [Compound 220] | 3810 nM | 3930 nM | 29.9 nM | 251 nM | 33.5 nM
CCC(=O)CCCCC[C@H](NC(=O)[C@H]1CC12CCN(C)CC2)c1ncc(-c2cc(OC)c3ccccc3n2)[nH]1 [Compound 170] | 436 nM | 1160 nM | 5.79 nM | 16.9 nM | 4.84 nM
CCN1CCC2(CC1)C[C@@H]2C(=O)N[C@@H](CCCCCC(=O)CC1CC1)c1ncc(-c2cc3ccc(C)nc3cc2OC)[nH]1 [Compound 165] | 140 nM | 385 nM | 1.18 nM | 8 nM | 2.14 nM
CCC(=O)CCCCC[C@H](NC(=O)[C@H]1CC12CCN(C)CC2)c1ncc(-c2ccc3nc(C4CC4)sc3c2)[nH]1 [Compound 146] | 122 nM | 112 nM | 1.06 nM | 3.3 nM | 0.64 nM
CCC(=O)CCCCC[C@H](NC(=O)[C@H]1CC12CCN(C)CC2)c1ncc(-c2ccc3nc(C)cc(Cl)c3c2)[nH]1 [Compound 174] | 67 nM | 82 nM | 0.55 nM | 2.1 nM | 0.43 nM
CCC(=O)CCCCC[C@H](NC(=O)C1CC2(CCN(C)CC2)C1)c1ncc(-c2ccc3nn(C)cc3c2)[nH]1 [Compound 145] | 641 nM | 746 nM | 5.85 nM | 12.6 nM | 2.61 nM
CCC(=O)CCCCC[C@H](NC(=O)[C@H]1CC12CCN(C)CC2)c1nc(F)c(-c2cc3ccccc3nc2OC)[nH]1 [Compound 75] | 275 nM | 801 nM | 29.3 nM | 101 nM | 2.59 nM
CCC(=O)CCCCC[C@H](NC(=O)[C@H]1CC12CCN(C)CC2)c1ncc(-c2ccc3c(=O)n(C)ccc3c2)o1 [Compound 137] | 434 nM | 443 nM | 7.78 nM | 17.2 nM | 4.72 nM
CCC(=O)CCCCC[C@H](NC(=O)[C@H]1CC12CCN(CC)CC2)c1ncc(-c2ccc3c(=O)n(C4CC4)ccc3c2)o1 [Compound 153] | 452 nM | 447 nM | 5.44 nM | 13.5 nM | 6.14 nM
CCC(=O)CCCCC[C@H](NC(=O)[C@H]1CC12CCN(CC)CC2)c1ncc(-c2ccc(-c3cnc(C4CC4)nc3)cc2)o1 [Compound 161] | 1370 nM | 1460 nM | 54.5 nM | 163 nM | 33 nM
CCC(=O)CCCCC[C@H](NC(=O)CN1CCC2(CC1)CC2)c1ncc(-c2ccc3nn(C)cc3c2)[nH]1 [Compound 155] | 354 nM | 398 nM | 6.91 nM | 18.4 nM | 2.05 nM
CCC(=O)CCCCC[C@H](NC(=O)[C@H]1CC12CCN(CC)CC2)c1ncc(-c2ccc(-c3cnc(C4CC4)cn3)cc2)o1 [Compound 129, (1S)—N-[(1S)-1-{5-[4-(5-cyclopropylpyrazin-2-yl)phenyl]-1,3-oxazol-2-yl}-7-oxononyl]-6-ethyl-6-azaspiro[2.5]octane-1-carboxamide] | 828 nM | 1240 nM | 27 nM | 89 nM | 14.2 nM
CCC(=O)CCCCC[C@H](NC(=O)[C@H]1CC12CCN(CC)CC2)c1ncc(-c2ccc3nc(C4CC4)ccc3c2)o1 [Compound 114] | 207 nM | 220 nM | 1.12 nM | 4.7 nM | 1.04 nM
CCC(=O)CCCCC[C@H](NC(=O)[C@H]1CC12CCN(C)CC2)c1ncc(-c2ccc(-c3ccc(C4CC4)nc3)cc2)o1 [Compound 143] | 1240 nM | 1330 nM | 65.1 nM | 207 nM | 32 nM

— patent US12590099B2, “Inhibitors of histone deacetylase useful for the treatment or prevention of HIV infection” (Merck Sharp & Dohme LLC, priority 2018, dated 2026)
